The results in this text go back to the supplement of paper PMC10307832.

What all share (experiment): relative viability (nuclei count vs DMSO), 5 days (fraction); higher = more cells survive
Compound in the assay “Irinotecan + Decitabine”: CCc1c2c(nc3ccc(OC(=O)N4CCC(N5CCCCC5)CC4)cc13)-c1cc3c(c(=O)n1C2)COC(=O)[C@]3(O)CC [Irinotecan] + Nc1ncn([C@H]2C[C@H](O)[C@@H](CO)O2)c(=O)n1 [Decitabine] (partner 2 µM)
In outline:
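After 5 days of treatment, lung cancer cells in 1536-well plates were fixed and stained in a single step (final 0.05% Triton X-100, 1% formaldehyde, 1 ug/ml Hoechst) and their nuclei counted on 4× images. Treatment had been applied by pin tool the day after seeding as one drug alone or as a fixed anchor-drug dose with five library-drug doses (not always all listed) in √10 steps. Relative viability is the nuclei count of treated wells divided by that of vehicle wells, and values are medians of duplicate plates.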

Compound in a further assay: CCc1c2c(nc3ccc(OC(=O)N4CCC(N5CCCCC5)CC4)cc13)-c1cc3c(c(=O)n1C2)COC(=O)[C@]3(O)CC [Irinotecan]
An outline of the steps:
(§1)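 Cells of lung cancer lines were placed in 1536-well plates and kept overnight at 37 °C. Pinning then delivered five library-drug doses (not always all listed), spaced by √10, onto plates anchored with vehicle, and the cells were left 5 days without changing medium. One step fixed, permeabilised and stained them with Hoechst, and MetaXpress counted nuclei in 4× images. Viability, as a median over plates, is treated-well nuclei divided by vehicle-well nuclei, with acceptance only at control CV below 25% and at least one doubling.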

Compound in a further assay: Cn1cc(-c2cnc3ccc4ccc(CS(=O)(=O)NCc5ccccn5)cc4c(=O)c3c2)cn1 [MK-8033]
In outline:
as §1

Compound in another assay: CC[C@@H](C)CNCC(=O)N1CCC2=C([C@@H]1COC3=CC=CC(=C3)C)C=CS2 [RU-SKI 43]
An outline of the steps:
as §1

As to UMC-11, the relative viability worked out at 0.589 with Irinotecan + Decitabine (first compound 0.6325 µM); 0.461 in the assay with Irinotecan + Decitabine (first compound 2 µM); 0.347 in the assay with Irinotecan + Decitabine (first compound 6.325 µM); 0.2 in the assay with Irinotecan + Decitabine (first compound 20 µM); 0.677 with Irinotecan (0.6325 µM); 0.675 in the assay with Irinotecan (2 µM). The relative viability with Irinotecan (6.325 µM) turned out to be 0.401; with Irinotecan (20 µM) it was 0.264; in the assay with MK-8033 (0.02 µM), 0.962; with MK-8033 (0.06325 µM) it was 0.837; with MK-8033 (0.2 µM), 0.916; with MK-8033 (0.6325 µM), 1. Also, the relative viability with MK-8033 (2 µM) is 0.982; with RU-SKI 43 (0.1 µM), 1.07; with RU-SKI 43 (0.3162 µM) it was 1.11; with RU-SKI 43 (1 µM) it was 1.08; in the assay with RU-SKI 43 (3.162 µM), 1.07; in the assay with RU-SKI 43 (10 µM) it was 0.843.
